The results in this text go back to patent publication US11524021B2, “Use of ginsenoside M1 for manufacturing medicament for treating oral cancer” (priority 2018, dated 2022).

Holding throughout (format): cell-based
Experiment [1] has as its system human oral cancer cells OECM-1. In words: Apoptotic DNA breaks, TUNEL assay by flow cytometry. Particulars: 24 h. As for the experimental part:
(§1) Human oral cancer cell line OECM-1 cells were incubated for 24 h with ginsenoside M1 (10˜20 μg/ml), 50 μM cistaplatin (CDDP) or vehicle (0.1% DMSO). (FIG. 3A) The apoptotic DNA breaks was assayed by terminal deoxynucleotidyl transferase dUTP nick end labeling (TUNEL) assay using flow cytometry. (FIG. 3B) The cell cycle distribution was determined by PI staining using flow cytometry. (FIG. 3C) The apoptosis level was measured by PI/Annexin V double staining assay using flow cytometry. (FIG. 3D) The activation levels of caspase-9 and caspase-3 were measured by detecting the degradation of pro-caspase-9 and pro-caspase-3 using Western blotting. […] (One-way ANOVA with Dunnett's multiple comparisons test).
(§2) To gain further insight into the mode of action of ginsenoside M1, three assays targeting hallmarks of apoptosis, namely (1) the apoptotic DNA breaks assayed by terminal deoxynucleotidyl transferase dUTP nick end labeling (TUNEL) assay, (2) the cell cycle assayed by flow cytometry after propidium iodide (PI)-staining nuclei, (3) the PI/Annexin V double staining assay, and (4) caspase activation were performed. Plate 1×10^6 human oral cancer cells OECM-1 per 6-cm dish in 2 ml of culture medium and were grown overnight at 37° C. in a 5% CO2 incubator. The cells were incubated for 24 h with ginsenoside M1 (10˜20 μg/ml), 50 μM cistaplatin (CDDP) or vehicle. Each group contains a final DMSO concentration of 0.1%. Thereafter, three assays were performed. […] The cells in sub-G1 phase increased after treatment with ginsenoside M1 and CDDP. (FIG. 3B). […] The data were expressed as mean±SD; n=3. ** and *** indicate a significant difference at the level of p<0.01 and p<0.001, respectively, compared to vehicle-control cells. (One-way ANOVA with Dunnett's multiple comparisons test).

Experiment [2] has as its system human oral cancer cells SAS. In words: Colony formation of SAS cells. Particulars: 5˜20 μg/ml, 10 days. As for the experimental part: (§3) FIGS. 4A-4B show ginsenoside M1 reduced the colony formation ability of human oral cancer cells. Human oral cancer cell line SAS cells (FIG. 4A) or OECM-1 cells (FIG. 4B) were incubated for 10 days with ginsenoside M1 (5˜20 μg/ml) or vehicle (0.1% DMSO). The cells were fixed in 4% ice-cold paraformaldehyde and stained with 0.1% crystal violet, and the colonies were counted. The data were expressed as mean±SD; n=4. * and *** indicate a significant difference at the level of p<0.05 and p<0.001, respectively, compared to vehicle-control cells. (One-way ANOVA with Dunnett's multiple comparisons test).
(§4) Plate 150 human oral cancer cells SAS or OECM-1 per 6-cm dish in 3 ml of culture medium and were grown overnight at 37° C. in a 5% CO2 incubator. The cells were incubated for 10 days with ginsenoside M1 (5˜20 μg/ml) or vehicle. The cells were changed for fresh medium containing the same concentration of ginsenoside M1 at day 5. The cells were fixed in 4% ice-cold paraformaldehyde for 15 min at […], and stained with 0.1% crystal violet 10 min at room temperature. […] The data were expressed as mean±SD; n=4. * and *** indicate a significant difference at the level of p<0.05 and p<0.001, respectively, compared to vehicle-control cells. (One-way ANOVA with Dunnett's multiple comparisons test).

For experiment [3], the system named is human oral cancer cells OECM-1. In words: Colony formation of OECM-1 cells. Conditions: 5˜20 μg/ml, 10 days. As for the experimental part: as §3, §4
Experiment [4] has as its system human oral cancer cells OECM-1. In words: PI/Annexin V double staining assay by flow cytometry. Conditions: 24 h. As for the experimental part:
as §1, §2
For orientation: In flow cytometry, cells or beads pass a laser one at a time.

For the compound `CC(C)=CCC[C@](C)(O[C@@H]1OC(CO)[C@@H](O)[C@@H](O)C1O)[C@H]1CC[C@]2(C)C1[C@H](O)CC1[C@@]3(C)CC[C@H](O)C(C)(C)C3CC[C@]12C` (stereo partly drawn) [ginsenoside M1, 20-O-β-D-glucopyranosyl-20(S)-protopanaxadiol], the figures for the “apoptotic DNA breaks in OECM-1 cells” value in experiment [1] (10 μg/ml) and in experiment [1] (20 μg/ml) were “not 10 μg/ml ginsenoside M1 significantly induced” and “significantly induced”, respectively. In addition, the “colony formation ability of SAS cells” value in experiment [2] is given as “dose-dependently inhibited”. For the same compound, the “colony formation ability of OECM-1 cells” value in experiment [3] is recorded as “dose-dependently inhibited”. Further, the “percentage of OECM-1 cells with PI/Annexin V double positive staining” value in experiment [4] (10 μg/ml) is on record as “not 10 μg/ml ginsenoside M1 significantly increased”; in experiment [4] (20 μg/ml) it was “significantly increased”.
